Measurements published in patent publication US8841513B2, “Procedure for producing transgenic plants providing high starch content and yield and high amylose/amylopectin balance” (priority 2008, dated 2014).
Where two headings read alike, the source gives them in different places.

Legend:
GP of E. coli [1] = target: T1, GP of E. coli (Escherichia coli, UniProt P0AC86, E280D/L281V); type: biochemical
T1 construct: His tag (pET-15b) (N); made in house; host or cells: E. coli BL21 (DE3) C43 transformed with pET15b-glgP (CECT 7071)
Procedure: (§1) The enzymatic reactions were carried out at 37° C. GP activities were measured in the sense of the analysed polyglucan degradation. In a first step, 50 μL of reaction mixture consisting of 50 mM HEPES (pH 7.5), 30 mM phosphate buffer (pH 7.5), polyglucan (equivalent to 10 mM glucose) and protein extract, were incubated for 15 minutes. The reaction was stopped after boiling for 2 minutes and centrifuging at 30,000 g for 20 minutes. The existing released G1P in the supernatant was determined by any of the following methods: • By spectrophotometry. 300 μL of mixture containing Hepes 50 mM pH 7, EDTA 1 mM, MgCl2 2 mM, KCl 15 mM, NAD^+ 0.6 mM, a unit of phosphoglucomutase and another of glucose-6-phosphate dehydrogenase of Leuconostoc mesenteroides, and 30 μL of supernatant resulting from step one were incubated for 20 minutes. The production of NADH was monitored at 340 nm using a Multiskan EX spectrophotometer (Labsystems). […] 40 μL of the supernatant from step 1 were subjected to high affinity liquid chromatography using a DX-500 Dionex system fitted to a Carbo-Pac PA10 column and amperometric detection.
The unit (U) is defined as the amount of enzyme that catalyzes the production of 1 μmol of product per minute.

GP of E. coli [2] = target: T1, GP of E. coli; test: Substrate specificity of GP of E. coli (products by HPLC with amperometric detection); type: biochemical
Procedure: as §1, with “In a first step, 50 μL of reaction mixture consisting of 50 mM HEPES (pH 7.5), 30 mM phosphate buffer (pH 7.5), polyglucan (equivalent to 10 mM glucose) and protein extract, were incubated for 15 minutes.” left out

[3] = effector 2 mM, GP activity, no effector = 100
[4] = glucan 5 mM glucose, 30 mM Pi, 3 U recombinant GP, 3 hours, 37° C.
[5] = cell without unit, glucan 5 mM glucose, 3 U recombinant GP, 3 hours, 37° C.
[6] = effector 3 mM, GP activity, no effector = 100

T1 sequence (P0AC86 other isoform, or with tags, fused parts or gaps E280D/L281V): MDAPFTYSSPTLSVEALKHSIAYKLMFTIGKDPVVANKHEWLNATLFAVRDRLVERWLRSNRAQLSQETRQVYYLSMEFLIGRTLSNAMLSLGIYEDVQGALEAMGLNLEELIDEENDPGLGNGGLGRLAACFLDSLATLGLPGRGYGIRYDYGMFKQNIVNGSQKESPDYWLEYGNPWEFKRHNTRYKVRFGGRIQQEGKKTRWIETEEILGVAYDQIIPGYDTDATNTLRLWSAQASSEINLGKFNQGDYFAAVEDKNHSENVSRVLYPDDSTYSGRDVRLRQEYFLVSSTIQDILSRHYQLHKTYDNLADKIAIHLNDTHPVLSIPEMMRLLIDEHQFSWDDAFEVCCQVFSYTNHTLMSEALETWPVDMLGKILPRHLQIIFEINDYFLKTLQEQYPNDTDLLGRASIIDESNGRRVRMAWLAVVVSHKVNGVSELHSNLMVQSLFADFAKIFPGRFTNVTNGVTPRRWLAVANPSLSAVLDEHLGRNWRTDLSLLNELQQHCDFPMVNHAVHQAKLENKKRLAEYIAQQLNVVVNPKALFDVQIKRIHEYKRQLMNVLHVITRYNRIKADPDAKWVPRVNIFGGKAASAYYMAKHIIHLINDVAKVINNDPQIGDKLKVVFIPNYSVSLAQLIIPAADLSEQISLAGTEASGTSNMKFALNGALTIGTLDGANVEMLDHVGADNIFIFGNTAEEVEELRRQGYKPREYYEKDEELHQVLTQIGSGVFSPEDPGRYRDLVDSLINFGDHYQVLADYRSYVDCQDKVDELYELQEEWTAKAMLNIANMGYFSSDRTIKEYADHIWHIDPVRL

In the case of `O=C(COP(=O)(O)O)[C@@H](O)[C@H](O)[C@H](O)COP(=O)(O)O` [Fructose-1,6-bisphosphate], the “Inhibition of the GP of E. coli” value (GP of E. coli [1]) is reported as “not to be inhibited”, the “Activity (U/mg protein)” value (GP of E. coli [1]; effector 2 mM) is reported as 9.0 U/mg protein and the “% control” value (GP of E. coli [1]; [3]) is reported as 113%.
For `Nc1ncnc2c1ncn2[C@@H]1O[C@@H]2COP(=O)(O)O[C@H]2[C@H]1O` [Cyclic AMP], the “% control” value (GP of E. coli [1]) was 91% and the “Activity (U/mg protein)” value (GP of E. coli [1]) was 7.3 U/mg protein.
In the case of `OC[C@H]1O[C@H](O[C@H]2[C@H](O)[C@@H](O)[C@@H](O[C@H]3[C@H](O)[C@@H](O)[C@@H](O[C@H]4[C@H](O)[C@@H](O)C(O)O[C@@H]4CO)O[C@@H]3CO)O[C@@H]2CO)[C@H](O)[C@@H](O)[C@@H]1O` (some centres unmarked) [Maltotetraose], the “Recognition as substrate by the GP of E. coli” value (from here on “Recognition as substrate”) (GP of E. coli [2]) is reported as “does not act on”, the “Products: G1P” value (GP of E. coli [2]; [4]) is reported as “b.d.l” and the “Products: Maltose” value (GP of E. coli [2]; [4]) is reported as “b.d.l”. For the same molecule, the “Products: Maltotetraose” value (GP of E. coli [2]; [4]) was 5 mM and the “Products: Maltotriose” value (GP of E. coli [2]; [4]) was “b.d.l”.
`O=C(O)[C@H](O)COP(=O)(O)O` [3-phosphoglycerate] was tested, and the “Inhibition of the GP of E. coli” value (GP of E. coli [1]) was “not to be inhibited”, the “Activity (U/mg protein)” value (GP of E. coli [1]; effector 2 mM) was 8.9 U/mg protein and the “% control” value (GP of E. coli [1]; [3]) was 111%.
For `Nc1ncnc2c1ncn2[C@@H]1O[C@H](COP(=O)(O)OP(=O)(O)O[C@H]2O[C@H](CO)[C@@H](O)[C@H](O)[C@H]2O)[C@@H](O)[C@H]1O` [ADPG, ADPglucose], the “Inhibition of the GP of E. coli” value (GP of E. coli [1]) was “not to be inhibited”, the “Activity (U/mg protein)” value (GP of E. coli [1]; effector 2 mM) was 8.3 U/mg protein and the “% control” value (GP of E. coli [1]; [3]) was 104%.
For `OC[C@H]1O[C@H](O[C@H]2[C@H](O)[C@@H](O)[C@@H](O[C@H]3[C@H](O)[C@@H](O)[C@@H](O[C@H]4[C@H](O)[C@@H](O)[C@@H](O[C@H]5[C@H](O)[C@@H](O)[C@@H](O[C@H]6[C@H](O)[C@@H](O)C(O)O[C@@H]6CO)O[C@@H]5CO)O[C@@H]4CO)O[C@@H]3CO)O[C@@H]2CO)[C@H](O)[C@@H](O)[C@@H]1O` (some centres unmarked) [Maltohexose], the “Recognition as substrate” value (GP of E. coli [2]) was “recognizes”, the “Products: Maltoheptose” value (GP of E. coli [2]; [5]) was 0.1 and the “Products: G1P” value (GP of E. coli [2]; [4]) was 1.7 mM. The “Products: Maltohexose” value (GP of E. coli [2]; [4]) was 2.1 mM, the “Products: Maltopentaose” value (GP of E. coli [2]; [4]) was 0.5 mM and the “Products: Maltose” value (GP of E. coli [2]; [4]) was “b.d.l”. The “Products: Maltotetraose” value (GP of E. coli [2]; [4]) was 0.6 mM and the “Products: Maltotriose” value (GP of E. coli [2]; [4]) was “b.d.l”.
With Maltopentaose the “Recognition as substrate” value (GP of E. coli [2]) was “recognizes”, the “Products: Maltohexose” value (GP of E. coli [2]; [5]) was 0.2 and the “Products: G1P” value (GP of E. coli [2]; [4]) was 1.6 mM. The “Products: Maltoheptose” value (GP of E. coli [2]; [4]) was “b.d.l”, the “Products: Maltopentaose” value (GP of E. coli [2]; [4]) was 2.2 mM and the “Products: Maltose” value (GP of E. coli [2]; [4]) was “b.d.l”. The “Products: Maltotetraose” value (GP of E. coli [2]; [4]) was 1.0 mM and the “Products: Maltotriose” value (GP of E. coli [2]; [4]) was “b.d.l”.
For `O=C(CO)[C@@H](O)[C@H](O)[C@H](O)COP(=O)(O)O` [Fructose-6-phosphate], the “Inhibition of the GP of E. coli” value (GP of E. coli [1]) was “not to be inhibited”, the “Activity (U/mg protein)” value (GP of E. coli [1]; effector 2 mM) was 8.4 U/mg protein and the “% control” value (GP of E. coli [1]; [3]) was 105%.
For `OC[C@H]1O[C@H](O[C@H]2[C@H](O)[C@@H](O)[C@@H](O[C@H]3[C@H](O)[C@@H](O)[C@@H](O[C@H]4[C@H](O)[C@@H](O)[C@@H](O[C@H]5[C@H](O)[C@@H](O)[C@@H](O[C@H]6[C@H](O)[C@@H](O)[C@@H](O[C@H]7[C@H](O)[C@@H](O)C(O)O[C@@H]7CO)O[C@@H]6CO)O[C@@H]5CO)O[C@@H]4CO)O[C@@H]3CO)O[C@@H]2CO)[C@H](O)[C@@H](O)[C@@H]1O` (some centres unmarked) [Maltoheptose], the “Recognition as substrate” value (GP of E. coli [2]) was “recognizes”, the “Products: G1P” value (GP of E. coli [2]; [4]) was 2.1 mM and the “Products: Maltoheptose” value (GP of E. coli [2]; [4]) was 1.3 mM. The “Products: Maltohexose” value (GP of E. coli [2]; [4]) was 1 mM, the “Products: Maltopentaose” value (GP of E. coli [2]; [4]) was 0.4 mM and the “Products: Maltose” value (GP of E. coli [2]; [4]) was “b.d.l”. For the same molecule, the “Products: Maltotetraose” value (GP of E. coli [2]; [4]) was 0.2 mM and the “Products: Maltotriose” value (GP of E. coli [2]; [4]) was “b.d.l”.
For `Nc1ncnc2c1ncn2[C@@H]1O[C@H](COP(=O)(O)OP(=O)(O)OP(=O)(O)O)[C@@H](O)[C@H]1O` [ATP], the “Inhibition of the GP of E. coli” value (GP of E. coli [1]) was “not to be inhibited”, the “Activity (U/mg protein)” value (GP of E. coli [1]; effector 2 mM) was 4.8 U/mg protein and the “% control” value (GP of E. coli [1]; [3]) was 60%.
In the case of `Nc1ncnc2c1ncn2[C@@H]1O[C@H](COP(=O)(O)O)[C@@H](O)[C@H]1O` [AMP], the “Inhibition of the GP of E. coli” value (GP of E. coli [1]) is reported as “not to be inhibited”, the “Activity (U/mg protein)” value (GP of E. coli [1]; effector 3 mM) is reported as 7.6 U/mg protein and the “% control” value (GP of E. coli [1]; [6]) is reported as 95%.
`O=P(O)(O)OP(=O)(O)O` [Pyrophosphate] was tested, and the “Activity (U/mg protein)” value (GP of E. coli [1]; effector 3 mM) was 7.8 U/mg protein and the “% control” value (GP of E. coli [1]; [6]) was 98%.
`Nc1ncnc2c1ncn2[C@@H]1O[C@H](COP(=O)(O)OP(=O)(O)O)[C@@H](O)[C@H]1O` [ADP] was tested, and the “Inhibition of the GP of E. coli” value (GP of E. coli [1]) was “not to be inhibited”, the “Activity (U/mg protein)” value (GP of E. coli [1]; effector 2 mM) was 7.0 U/mg protein and the “% control” value (GP of E. coli [1]; [3]) was 88%.
For starch, the “Recognition as substrate” value (GP of E. coli [2]) was “recognizes”.
With `O=C[C@H](O)[C@@H](O)[C@H](O)[C@H](O)COP(=O)(O)O` [Glucose-6-phosphate] the “Inhibition of the GP of E. coli” value (GP of E. coli [1]) was “not to be inhibited”, the “Activity (U/mg protein)” value (GP of E. coli [1]; effector 2 mM) was 7.6 U/mg protein and the “% control” value (GP of E. coli [1]; [3]) was 95%.
With `OC[C@H]1O[C@H](O[C@H]2[C@H](O)[C@@H](O)C(O)O[C@@H]2CO)[C@H](O)[C@@H](O)[C@@H]1O` (mixture of isomers) [Maltose] the “Recognition as substrate” value (GP of E. coli [2]) was “does not act on”, the “Products: G1P” value (GP of E. coli [2]; [4]) was “b.d.l” and the “Products: Maltose” value (GP of E. coli [2]; [4]) was 5 mM.
In the case of Glycogen, the “Recognition as substrate” value (GP of E. coli [2]) is reported as “recognizes”, the “Products: G1P” value (GP of E. coli [2]; [4]) is reported as 0.5 mM and the “Products: Glycogen” value (GP of E. coli [2]; [4]) is reported as 4.5 mM. For the same molecule, the “Products: Maltoheptose” value (GP of E. coli [2]; [4]) was “b.d.l”, the “Products: Maltohexose” value (GP of E. coli [2]; [4]) was “b.d.l” and the “Products: Maltopentaose” value (GP of E. coli [2]; [4]) was “b.d.l”. The “Products: Maltose” value (GP of E. coli [2]; [4]) was “b.d.l”, the “Products: Maltotetraose” value (GP of E. coli [2]; [4]) was “b.d.l” and the “Products: Maltotriose” value (GP of E. coli [2]; [4]) was “b.d.l”.
For Maltotriose, the “Recognition as substrate” value (GP of E. coli [2]) was “does not act on”, the “Products: G1P” value (GP of E. coli [2]; [4]) was “b.d.l” and the “Products: Maltose” value (GP of E. coli [2]; [4]) was “b.d.l”. The “Products: Maltotriose” value (GP of E. coli [2]; [4]) was 5 mM.
